Measured values taken from patent US6495529B1 (Warner-Lambert Company, priority 1998, dated 2002).

Legend:
Swiss-Webster mice = test: Locomotor stimulant and depressant effects in mice; conditions: mice, i.p.; for locomotor depressant effect (in words) / locomotor stimulant effect (in words): 2-hour session
Method: Male Swiss-Webster mice (HSD ND4, Harlan Sprague Dawley, Houston, Tex.) aged 2-3 months were used in these studies. Each dose group consisted of 8 mice. The mice were housed 2 to 4 per cage in 30.4×22.9×15.2 cm clear polycarbonate cages with food and water available ad libitum for at least one week prior to locomotor activity testing. The colony was maintained at 23±1° C., on a normal light-dark cycle beginning at 0700 hr. All testing took place during the light portion of the light-dark cycle.
Horizontal (forward movement) locomotor activity was measured using a standardized, optical activity monitoring system [Model KXYZCM (16), Omnitech Electronics, Columbus, Ohio]. Activity was monitored in forty 40.5×40.5×30.5 cm clear acrylic chambers that where housed in sets of two within larger sound-attenuating chambers. A panel of 16 infrared beams and corresponding photodetectors were spaced 2 cm apart along the sides and 2.4 cm above the floor of each activity chamber. A 7.5-W incandescent light above each chamber provided dim illumination via a rheostat set to 20% of full scale. Fans provided an 80-dB ambient noise level within the chamber.
(+)-Amphetamine was used as a positive control. The total horizontal distance traversed (cm) was recorded at 10 minute intervals for a 2-hour session. Separate groups of 8 mice were assigned to each dose or saline group, and dose-effect testing continued for each compound until maximal stimulant or depressant effects could be estimated. A separate control group was tested along with each compound.
Using TableCurve 2D v2.03 (Jandel Scientific), the mean average total distance traversed (cm/10 min) for that period was fit to a 3-parameter logistic peak function of log10 dose (with the constant set to the mean of the saline group), and the maximum effect estimated from the resulting curve. The ED50 (dose producing ½ maximal stimulant activity) was estimated from a linear regression against log10 dose of the ascending portion of the dose-effect curve. The stimulant efficacy was the peak effect of the compound (cm/10 min) as estimated from the logistic peak function, minus the mean control distance traveled (cm/10 min), and was expressed for each stimulant compound as a ratio to the stimulant efficacy determined for (+)-amphetamine.
The mean average total distance traversed (cm/10 min) for that period were fit to a linear function of log10 dose of the descending portion of the dose-effect curve. […] Efficacy was the ratio of maximal depressant effect to maximum possible depression for each compound (mean average total distance of the control group minus the lowest mean total distance, expressed as a ratio to the control group total distance).
Time course data for each compound were considered in 2-way analyses of variance with dose as a between-group and time as a within-group factor. The dose-effect data were considered in 1-way analyses of variance, and planned individual comparisons were conduced between each dose and the saline control group. Interaction studies were considered in 2-way analyses of variance, with Pretreatment and Test dose as the factors.

α1-receptors = assay type: binding, dog; conditions: read-out: Alpha-1 Ki
Method: The lungs of mongrel dogs were separated from cartilaginous airways and major blood vessels, weighted, chopped and placed into 10 volumes of ice-cold buffered sucrose (50 mM Tris-HCl pH 7.4, 1 mM EGTA, 0.32 M Sucrose). The tissue was then homogenized in a Polytron tissue homogenizer. The homogenate was filtered through two layers of cheesecloth, and the filtrate was dounced three times using a Con-Turque Potter homogenizer. […] The supernatant was recentrifuged at 30,000×g for 30 min at 4° C. and the resulting pellet was washed and resuspended in 10 volumes of Tris buffer (50 mM Tris HCL, pH 7.4, 1 mM EGTA) and incubated at 37° C. for 30 min in a shaking water bath. The suspension was centrifuged at 4° C., at 30,000×g for 30 min and the resulting pellet washed in 10 volumes of Tris buffer. […] Protein concentration was then determined by the Lowry method and the final suspension was adjusted to 10 mg of protein/ml, aliquoted and stored at −90° C.
Nonspecific binding was determined for each concentration point in separate incubations, with 10 μM phentolamine. Each experimental point was determined in triplicate. […] All binding assay incubations were terminated by rapid dilution with 2 ml of ice-cold wash buffer (50 mM Tris-HCl, pH 7.4) and filtration through Whatman GF/B filters using Brandel receptor-binding harvester.
All data were analyzed with the aid of microcomputer nonlinear curve fitting programs (PRISM 2.0, Graphpad Software, San Diego Calif.).
The receptors resident in each of the three membrane preparations were evaluated by standard saturation analysis following the addition of increasing concentrations of the appropriate radioligand. […]

Sprague Dawley rats = test: Nasal airway pressure in normal (non-histamine-challenged) rats; conditions: for Mean Decrease in Nasal Airway Pressure: i.v.; for Mean decrease in nasal airway pressure, % Change: 100% dose i.v.; for Mean decrease in nasal airway pressure, % Change / Nasal airway pressure, Control: non-histamine-challenged rats; for Nasal airway pressure, Post Drug: after 100% dose (dose raising MAP 10%) into jugular vein; for Nasal airway pressure, Control: before drug
[1] = tested on: histamine-challenged rats; test: Nasal airway pressure in histamine-challenged rats; conditions: for Nasal airway pressure, Post Drug: 100% dose i.v. two minutes after histamine; for Nasal airway pressure, Post Histamine: after intranasal histamine 50 mM 0.02 ml/nostril, before drug; for Nasal airway pressure, Control: before histamine and drug; for Mean decrease in nasal airway pressure, % Change: post drug vs post histamine
[2] = tested on: New Zealand white rabbits; test: Intraocular pressure (IOP) after topical application to rabbit eye
rats = test: Dosage that raised mean arterial pressure 10% in rat; assay type: in vivo
mongrel dogs = test: Intravenous dose increasing mean arterial pressure 10% in anesthetized dogs; conditions: anesthetized dog, i.v.
[3] = 5% of the dose that increased MAP 10%, mean ± SEM
[4] = 10% of the dose that increased MAP 10%
[5] = 50% of the dose that increased MAP 10%

CNC[C@H](O)c1cccc(O)c1 [(−)-phenylephrine]
Depression Potency (ID50, dose resulting in ½ the maximal depressant effect) (Swiss-Webster mice): 2.3 mg/kg | Depression Time (30-min period following injection in which the maximal depression occurred) (Swiss-Webster mice): 0 to 30 min | Stimulation Time (30-min period following injection in which the maximal stimulant effect occurred) (Swiss-Webster mice): 60 to 90 min | locomotor depressant effect (in words) (Swiss-Webster mice): some locomotor depression | locomotor stimulant effect (in words) (Swiss-Webster mice): Little or no stimulant effects | Ki (α1-receptors): 3 µM | Mean Decrease in Nasal Airway Pressure (Sprague Dawley rats; [3]): −1.6 ± 0.9 mm water | Mean Decrease in Nasal Airway Pressure (Sprague Dawley rats; [4]): −4.8 ± 0.8 mm water | Mean Decrease in Nasal Airway Pressure (Sprague Dawley rats; 25% of the dose that increased MAP 10%): −12.1 ± 2.4 mm water | Mean Decrease in Nasal Airway Pressure (Sprague Dawley rats; [5]): −5.2 ± 1.6 mm water | Mean decrease in nasal airway pressure, % Change (Sprague Dawley rats): −20.3% | Nasal airway pressure, Post Drug (Sprague Dawley rats): 4 ± 0.2 mm H2O | Nasal airway pressure, Control (Sprague Dawley rats): 5 ± 0.2 mm H2 O | Nasal airway pressure, Post Drug [1]: 10.5 mm water | Nasal airway pressure, Post Histamine [1]: 13.2 ± 2.1 mm water | Nasal airway pressure, Control [1]: 7.5 ± 0.5 mm water | Mean decrease in nasal airway pressure, % Change [1]: −22.3% | IOP ([2]; drug 1% topical, drug treated eye (T), 0.5 hr): 24 ± 0.6 mmHg | IOP ([2]; drug 1% topical, drug treated eye (T), 1 hr): 24 ± 1.0 mmHg | IOP ([2]; drug 1% topical, drug treated eye (T), 3 hr): 23 ± 1.5 mmHg | IOP ([2]; drug 1% topical, drug treated eye (T), 5 hr): 21 ± 1.9 mmHg | IOP ([2]; drug 1% topical, drug treated eye (T), −0.5 hr (pre-treatment)): 16 ± 1.5 mmHg | IOP ([2]; drug 1% topical, drug treated eye (T), −1 hr (pre-treatment)): 20 ± 1.6 mmHg | IOP ([2]; drug 1% topical, untreated contralateral eye (U), 0.5 hr): 18 ± 1.6 mmHg | IOP ([2]; drug 1% topical, untreated contralateral eye (U), 1 hr): 19 ± 1.3 mmHg | IOP ([2]; drug 1% topical, untreated contralateral eye (U), 3 hr): 20 ± 1.9 mmHg | IOP ([2]; drug 1% topical, untreated contralateral eye (U), 5 hr): 19 ± 1.7 mmHg | IOP ([2]; drug 1% topical, untreated contralateral eye (U), −0.5 hr (pre-treatment)): 15 ± 2.1 mmHg | IOP ([2]; drug 1% topical, untreated contralateral eye (U), −1 hr (pre-treatment), mean ± S.E.): 16 ± 1.0 mmHg | IOP ([2]; drug 2% topical, drug treated eye (T), 0.5 hr): 12 ± 0.8 mmHg | IOP ([2]; drug 2% topical, drug treated eye (T), 1 hr): 14 ± 2.0 mmHg | IOP ([2]; drug 2% topical, drug treated eye (T), 3 hr): 16 ± 0.8 mmHg | IOP ([2]; drug 2% topical, drug treated eye (T), 5 hr): 14 ± 1.3 mmHg | IOP ([2]; drug 2% topical, drug treated eye (T), −0.5 hr (pre-treatment)): 15 ± 1.5 mmHg | IOP ([2]; drug 2% topical, drug treated eye (T), −1 hr (pre-treatment)): 18 ± 1.6 mmHg | IOP ([2]; drug 2% topical, untreated contralateral eye (U), 0.5 hr): 20 ± 2.0 mmHg | IOP ([2]; drug 2% topical, untreated contralateral eye (U), 1 hr): 20 ± 2.4 mmHg | IOP ([2]; drug 2% topical, untreated contralateral eye (U), 3 hr): 14 ± 1.7 mmHg | IOP ([2]; drug 2% topical, untreated contralateral eye (U), 5 hr): 14 ± 2.0 mmHg | IOP ([2]; drug 2% topical, untreated contralateral eye (U), −0.5 hr (pre-treatment)): 17 ± 1.9 mmHg | IOP ([2]; drug 2% topical, untreated contralateral eye (U), −1 hr (pre-treatment)): 17 ± 1.9 mmHg | Dosage of Enantiomer that Raised Mean Arterial Pressure 10%, Rat (rats): 3 to 5 µg | Intravenous Dose Needed to Increase MAP 10% (mongrel dogs): 0.01 mg/kg

CN[C@@H](C)[C@H](O)c1ccccc1 [(−)-ephedrine]
locomotor depressant effect (in words) (Swiss-Webster mice): did not cause locomotor depression | locomotor stimulant effect (in words) (Swiss-Webster mice): increased locomotion | onset of increased locomotion after injection (Swiss-Webster mice; (−)-ephedrine: following 50 to 100 mg/kg): ≤ 40 min | Ki (α1-receptors): 47 µM | Mean Decrease in Nasal Airway Pressure (Sprague Dawley rats; [3]): −1.0 ± 0.8 mm water | Mean Decrease in Nasal Airway Pressure (Sprague Dawley rats; [4]): −2.5 ± 1.5 mm water | Mean Decrease in Nasal Airway Pressure (Sprague Dawley rats; [5]): −1.9 ± 2.0 mm water | Mean decrease in nasal airway pressure, % Change (Sprague Dawley rats): −14% | Nasal airway pressure, Post Drug (Sprague Dawley rats): 6 ± 0.5 mm H2O | Nasal airway pressure, Control (Sprague Dawley rats): 7 ± 0.8 mm H2 O | Nasal airway pressure, Post Drug [1]: 6.4 mm water | Nasal airway pressure, Post Histamine [1]: 8.2 ± 0.7 mm water | Nasal airway pressure, Control [1]: 6.7 ± 0.4 mm water | Mean decrease in nasal airway pressure, % Change [1]: −21.8% | effect on IOP (in words) ([2]; topical 1% and 2%, rabbit, treated eye): increased IOP | Dosage of Enantiomer that Raised Mean Arterial Pressure 10%, Rat (rats): 30 µg | Intravenous Dose Needed to Increase MAP 10% (mongrel dogs): 0.1 mg/kg
